According to patent US20050154229A1, “Maleic acid salt of(2s)-n-{5-[amino(imino)methy]-2-thienyl}methyl-1-{(2r)-2-[(carboxymethyl)amino]-3,3-diphenylpropanoyl}-2-pyrrolidine carboxamide and a process for” (priority 2002, published 2005):
Structures can show the parent of a compound that is named as a salt.

Key:
Assay type in all cases: physicochemical
[1] = Test of the dissolution rate per unit area (0.5 cm^2 disk in buffer solutions)
Protocol: Some compounds may have difficulty in being absorbed due to a low dissolution rate. To confirm the above difficulty beforehand, a disk having the area of 0.5 cm^2 is prepared, and then its dissolution rate in various media is measured. The dissolution amount over time is measured and its value is divided by the disk's area. The value is the dissolution rate per unit area. If the value is usually 1 mg/min/cm^2 or more, it can be said that there is no phenomenon for the drug not to be absorbed due to the low dissolution rate. If the value is 0.1 mg/min/cm^2 or less, it can be said that the drug has a problem of absorption due to the low dissolution rate (see, Howard C. Ansel, Nicholas G. Popovich and Loyd V. Allen, 1995, Pharmaceutical Dosage Forms and Drug Delivery Systems, 6th ed., Williams & Wilkins, pp.109 and Jens T. Carstensen, 1996, Modern Pharmaceutics: Gilbert S. Banker and Christopher T. Rhodes (Ed.), Drugs and the pharmaceutical sciences, Vol. 72, 3rd ed., Dekker, pp. 233.). Thus, measuring the dissolution rate per unit area has a very significant meaning in predicting the absorption problem that may occur in in vivo test of the drug later. Therefore, a compound having an excellent dissolution rate per unit area should be selected as a candidate for the drug development.
200 mg of the crystalline form of maleic acid salt prepared in Example 2 was put into a mold. By applying pressure on the mold, a disk having the area of 0.5 cm^2 was prepared and the disk was added to each of the buffer solutions (600 ml) of pH 3.8 and 7.4 to conduct the dissolution test. A portion of the solution was periodically taken and its concentration was measured to determine the dissolution rate per unit area.
The same test as Test example 5 was conducted on the free compound of Formula 1. The dissolution rate per unit area of the free compound was 1.3 mg/min/cm^2 at pH 3.8 and 0.3 mg/min/cm^2 at pH 7.4.

[2] = Moisture absorption and dehumidification tests at defined relative humidities (condition observed, weight change); details: two days or more
Protocol: After 40 mg of the amorphous form of maleic acid salt prepared in Example 1 was thinly coated onto a beaker, the sample was moisture-absorbed by placing it at each relative humidity of 33%, 57%, 64%, 75% and 93% for two days or more and its condition was observed. In order to obtain each relative humidity above, as shown in the table below, saturated aqueous solutions of salts were prepared and then placed in a desiccator, and the desiccator was sealed.
100 mg of the crystalline form of maleic acid salt prepared in Example 2 was thinly coated onto a beaker and then placed at each relative humidity of 33%, 57%, 64%, 75% and 93% for two days or more to be moisture-absorbed. Thereafter, the weight change of the sample was measured while its condition is observed. In order to obtain each relative humidity above, as shown in Table 2 of Test example 2, saturated aqueous solutions of salts were prepared and then placed in a desiccator and the desiccator was sealed.
The method as described in Test example 2 was applied to the amorphous diHCl salt prepared in Comparative Example 1. From observing its change at each relative humidity, it is shown that the salt was deliquesced at the relative humidity of 75%. […] Therefore, it can be shown that the maleic acid salt is the most excellent among various acid salts.

[3] = Powder X-ray diffraction test during moisture absorption and dehumidification; details: vacuum dried, then relative humidity 33%, 53%, 64%, 75% and 93%, two days or more each
Protocol: 40 mg of the crystalline form of maleic acid salt prepared in Example 2 was thinly coated onto a sample holder and then the powder X-ray diffraction test was conducted according to the following conditions. By using Rigaku Geigeflex D/max-III C apparatus, the test was conducted at 35 kV, 20 mA.
40 mg of the maleic acid salt prepared in Example 2 was thinly coated onto a sample holder. Immediately after the sample was vacuum dried in the presence of P2O5, and after the sample was placed for moisture absorption at each relative humidity of 33%, 53%, 64%, 75% and 93% for two days or more, respectively, the powder X-ray diffraction test of the sample was conducted according to the conditions represented in the above Test example 1 to observe change of the crystalline form during moisture absorption. While lowering the relative humidity, the same test was repeated to observe change of the crystalline form during dehumidification. In order to obtain each relative humidity above, as shown in Table 2 of Test example 2, saturated aqueous solutions of salts were prepared and then placed in a desiccator and the desiccator was sealed.

Question: For `N=C(N)c1ccc(CNC(=O)[C@@H]2CCCN2C(=O)[C@H](NCC(=O)O)C(c2ccccc2)c2ccccc2)s1` [free compound, (2S)-N-{5-[amino(imino)methyl]-2-thienyl}methyl-1-{(2R)-2-[(carboxymethyl)amino]-3,3-diphenylpropanoyl}-2-pyrrolidine carboxamide], which “dissolution rate per unit area” value ([1]; buffer solution pH 3.8, 600 ml) is on record?
Answer: The value was 1.3 mg/min/cm^2.

Question: And the “dissolution rate per unit area” value ([1]; buffer solution pH 7.4, 600 ml)?
Answer: Its value is 0.3 mg/min/cm^2.

Question: What does the source list for `N=C(N)c1ccc(CNC(=O)[C@@H]2CCCN2C(=O)[C@H](NCC(=O)O)C(c2ccccc2)c2ccccc2)s1.O=C(O)/C=C\C(=O)O` [amorphous form of maleic acid salt, maleic acid salt of (2S)-N-{5-[amino(imino)methyl]-2-thienyl}methyl-1-{(2R)-2-[(carboxymethyl)amino]-3,3-diphenylpropanoyl}-2-pyrrolidine carboxamide]?
Answer: condition observed after moisture absorption ([2]; relative humidity of 75%): hardened; condition observed after moisture absorption ([2]; relative humidity of 93%): deliquesced

Question: Which “condition observed after moisture absorption” value ([2]; relative humidity of 75%) does the source give for `N=C(N)c1ccc(CNC(=O)[C@@H]2CCCN2C(=O)[C@H](NCC(=O)O)C(c2ccccc2)c2ccccc2)s1` [amorphous diHCl salt] here?
Answer: The value was “deliquesced”.

Question: Which results are given for `N=C(N)c1ccc(CNC(=O)[C@@H]2CCCN2C(=O)[C@H](NCC(=O)O)C(c2ccccc2)c2ccccc2)s1.O=C(O)/C=C\C(=O)O` [crystalline form of maleic acid salt, maleic acid salt of (2S)-N-{5-[amino(imino)methyl]-2-thienyl}methyl-1-{(2R)-2-[(carboxymethyl)amino]-3,3-diphenylpropanoyl}-2-pyrrolidine carboxamide]?
Answer: change of the powder X-ray diffraction diagram (crystalline form) during moisture absorption and dehumidification [3]: did not show any change; dissolution rate per unit area ([1]; buffer solution pH 3.8, 600 ml): 11.8 mg/min/cm^2; dissolution rate per unit area ([1]; buffer solution pH 7.4, 600 ml): 1.7 mg/min/cm^2; weight increase on moisture absorption based on initial weight ([2]; relative humidity of 33%): 1.4%; weight increase on moisture absorption based on initial weight ([2]; relative humidity of 57%): 3.0%; weight increase on moisture absorption based on initial weight ([2]; relative humidity of 64%): 4.3%; weight increase on moisture absorption based on initial weight ([2]; relative humidity of 75%): 4.1%; condition observed after moisture absorption ([2]; relative humidity of 93%): not deliquesced; weight increase on moisture absorption based on initial weight ([2]; relative humidity of 93%): 6.7%
